According to patent US12258328B2, “6-membered heteroaryl-containing aminopyridine compounds as EGFR inhibitors” (YUHAN CORPORATION, priority 2021, dated 2025):
Where two headings read alike, the source gives them in different places. Blank lines part the entries; values can stand above or below the compound they belong to.

Columns and labels:
EGFR L858R/C797S = EGFR L858R/C797S (Homo sapiens, UniProt P00533, C797S/L858R); assay: Biochemical EGFR kinase assay (Lance Ultra TR-FRET), double mutant L858R/C797S
Sequence of EGFR L858R/C797S (P00533 25-1210 C797S/L858R): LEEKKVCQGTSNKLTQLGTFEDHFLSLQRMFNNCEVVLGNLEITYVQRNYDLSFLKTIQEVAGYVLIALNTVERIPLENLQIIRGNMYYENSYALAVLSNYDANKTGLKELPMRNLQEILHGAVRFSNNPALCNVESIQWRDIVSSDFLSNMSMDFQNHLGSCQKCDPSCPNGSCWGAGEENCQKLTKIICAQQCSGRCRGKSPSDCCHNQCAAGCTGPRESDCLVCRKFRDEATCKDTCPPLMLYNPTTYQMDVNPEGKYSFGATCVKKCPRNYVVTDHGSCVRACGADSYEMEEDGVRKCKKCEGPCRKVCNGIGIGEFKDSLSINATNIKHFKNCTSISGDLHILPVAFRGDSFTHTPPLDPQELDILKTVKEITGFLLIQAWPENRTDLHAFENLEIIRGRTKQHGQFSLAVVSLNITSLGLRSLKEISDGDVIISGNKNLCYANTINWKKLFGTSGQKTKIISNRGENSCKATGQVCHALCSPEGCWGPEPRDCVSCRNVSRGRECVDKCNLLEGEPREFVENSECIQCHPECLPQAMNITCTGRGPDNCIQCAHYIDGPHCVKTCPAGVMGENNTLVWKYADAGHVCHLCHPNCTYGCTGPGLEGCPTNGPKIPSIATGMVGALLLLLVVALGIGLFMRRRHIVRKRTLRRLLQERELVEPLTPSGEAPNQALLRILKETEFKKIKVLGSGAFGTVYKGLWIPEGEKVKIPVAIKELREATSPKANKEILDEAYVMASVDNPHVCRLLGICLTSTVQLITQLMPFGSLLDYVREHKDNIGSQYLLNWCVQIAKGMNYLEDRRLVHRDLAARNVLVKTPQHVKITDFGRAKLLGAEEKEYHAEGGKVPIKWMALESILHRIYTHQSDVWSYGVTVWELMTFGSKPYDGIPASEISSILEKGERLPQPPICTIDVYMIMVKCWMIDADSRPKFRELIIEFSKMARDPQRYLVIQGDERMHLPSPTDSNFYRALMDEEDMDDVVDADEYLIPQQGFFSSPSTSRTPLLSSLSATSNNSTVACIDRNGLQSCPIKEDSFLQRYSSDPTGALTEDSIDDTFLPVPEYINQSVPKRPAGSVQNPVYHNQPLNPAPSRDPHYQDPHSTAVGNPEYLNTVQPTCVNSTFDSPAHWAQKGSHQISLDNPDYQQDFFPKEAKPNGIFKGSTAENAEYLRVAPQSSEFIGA
Outline: (§1)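 Kinase activity is measured by TR-FRET phosphopeptide detection. Compounds span 0.003 μM to 10 μM; the 1 h reaction at room temperature is quenched with EDTA, then labelled antibody (2 nM) is incubated 60 min before reading.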

EGFR L858R/T790M/C797S = EGFR L858R/T790M/C797S (Homo sapiens, UniProt P00533, C797S/L858R/T790M); assay: Biochemical EGFR kinase assay (Lance Ultra TR-FRET), triple mutant L858R/T790M/C797S
Outline: as §1

EGFR del19/C797S = EGFR del19/C797S (Homo sapiens, UniProt P00533, C797S/DEL746-750); assay: Biochemical EGFR kinase assay (Lance Ultra TR-FRET), double mutant del19/C797S
Sequence of EGFR del19/C797S (P00533 with tags, fused parts or gaps DEL746-750/C797S): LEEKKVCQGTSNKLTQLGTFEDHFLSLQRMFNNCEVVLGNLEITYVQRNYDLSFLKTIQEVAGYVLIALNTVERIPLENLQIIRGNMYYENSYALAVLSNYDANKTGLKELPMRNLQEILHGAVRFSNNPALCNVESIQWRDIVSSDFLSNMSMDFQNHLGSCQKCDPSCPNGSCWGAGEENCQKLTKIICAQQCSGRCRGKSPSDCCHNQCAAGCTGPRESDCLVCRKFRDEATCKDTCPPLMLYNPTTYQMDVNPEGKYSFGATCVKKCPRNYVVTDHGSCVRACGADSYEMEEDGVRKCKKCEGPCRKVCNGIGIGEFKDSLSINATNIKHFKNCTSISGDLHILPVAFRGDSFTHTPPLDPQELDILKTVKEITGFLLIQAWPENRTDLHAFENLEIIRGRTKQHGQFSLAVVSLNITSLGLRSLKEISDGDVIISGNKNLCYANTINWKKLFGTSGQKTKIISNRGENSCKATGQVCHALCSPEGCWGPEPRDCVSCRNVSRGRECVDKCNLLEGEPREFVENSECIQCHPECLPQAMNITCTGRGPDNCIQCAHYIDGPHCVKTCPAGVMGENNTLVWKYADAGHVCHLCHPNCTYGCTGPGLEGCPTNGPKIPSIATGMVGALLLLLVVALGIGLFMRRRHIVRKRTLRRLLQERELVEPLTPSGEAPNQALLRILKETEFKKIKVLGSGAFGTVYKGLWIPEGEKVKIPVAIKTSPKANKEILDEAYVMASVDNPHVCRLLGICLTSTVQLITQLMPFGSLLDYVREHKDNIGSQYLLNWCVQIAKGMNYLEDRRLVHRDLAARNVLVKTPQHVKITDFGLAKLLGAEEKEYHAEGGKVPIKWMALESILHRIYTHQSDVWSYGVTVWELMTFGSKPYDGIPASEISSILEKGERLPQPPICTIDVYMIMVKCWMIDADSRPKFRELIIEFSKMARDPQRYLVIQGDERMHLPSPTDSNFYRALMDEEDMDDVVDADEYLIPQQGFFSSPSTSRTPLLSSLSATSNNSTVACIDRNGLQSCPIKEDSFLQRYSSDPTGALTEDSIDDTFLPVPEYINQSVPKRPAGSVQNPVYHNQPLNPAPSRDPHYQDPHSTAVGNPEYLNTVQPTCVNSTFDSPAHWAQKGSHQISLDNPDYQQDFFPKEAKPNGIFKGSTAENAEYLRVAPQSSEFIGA
Outline: as §1

EGFR wildtype = EGFR wildtype (Homo sapiens, UniProt P00533); assay: Biochemical EGFR kinase assay (Lance Ultra TR-FRET), wildtype
Sequence of EGFR wildtype (P00533 25-1210): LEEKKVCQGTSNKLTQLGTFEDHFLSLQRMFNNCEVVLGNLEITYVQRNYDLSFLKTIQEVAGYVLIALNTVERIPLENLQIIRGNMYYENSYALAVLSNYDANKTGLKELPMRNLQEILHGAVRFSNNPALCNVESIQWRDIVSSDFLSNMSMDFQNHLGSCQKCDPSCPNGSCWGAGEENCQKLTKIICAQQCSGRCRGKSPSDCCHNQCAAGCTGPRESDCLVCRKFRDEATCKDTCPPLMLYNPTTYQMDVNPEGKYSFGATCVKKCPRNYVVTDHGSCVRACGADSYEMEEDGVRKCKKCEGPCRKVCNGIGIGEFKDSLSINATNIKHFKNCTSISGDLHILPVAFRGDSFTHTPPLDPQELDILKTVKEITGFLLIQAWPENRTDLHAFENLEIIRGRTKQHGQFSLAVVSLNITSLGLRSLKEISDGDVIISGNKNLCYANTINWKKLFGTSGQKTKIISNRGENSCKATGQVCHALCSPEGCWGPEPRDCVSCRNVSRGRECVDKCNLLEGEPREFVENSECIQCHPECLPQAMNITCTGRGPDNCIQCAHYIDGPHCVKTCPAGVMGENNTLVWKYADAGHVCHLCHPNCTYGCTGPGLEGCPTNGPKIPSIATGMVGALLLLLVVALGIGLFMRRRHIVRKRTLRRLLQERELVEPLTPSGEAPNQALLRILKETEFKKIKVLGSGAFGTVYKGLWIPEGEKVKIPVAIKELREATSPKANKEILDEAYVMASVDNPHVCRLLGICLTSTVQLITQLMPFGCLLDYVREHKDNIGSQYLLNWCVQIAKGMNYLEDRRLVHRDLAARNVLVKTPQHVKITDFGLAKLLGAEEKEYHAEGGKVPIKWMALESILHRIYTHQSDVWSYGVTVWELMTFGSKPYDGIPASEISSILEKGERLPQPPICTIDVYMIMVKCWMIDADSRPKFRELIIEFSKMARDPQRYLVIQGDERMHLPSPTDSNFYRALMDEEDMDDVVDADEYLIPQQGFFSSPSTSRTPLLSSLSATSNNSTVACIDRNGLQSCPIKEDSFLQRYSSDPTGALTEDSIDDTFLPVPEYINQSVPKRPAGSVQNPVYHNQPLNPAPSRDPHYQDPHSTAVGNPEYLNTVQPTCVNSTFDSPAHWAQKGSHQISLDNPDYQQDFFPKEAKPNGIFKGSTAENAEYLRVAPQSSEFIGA
Outline: as §1

EGFR del19/T790M/C797S = EGFR del19/T790M/C797S (Homo sapiens, UniProt P00533, C797S/DEL746-750/T790M); assay: Biochemical EGFR kinase assay (Lance Ultra TR-FRET), triple mutant del19/T790M/C797S
Sequence of EGFR del19/T790M/C797S (P00533 with tags, fused parts or gaps DEL746-750/T790M/C797S): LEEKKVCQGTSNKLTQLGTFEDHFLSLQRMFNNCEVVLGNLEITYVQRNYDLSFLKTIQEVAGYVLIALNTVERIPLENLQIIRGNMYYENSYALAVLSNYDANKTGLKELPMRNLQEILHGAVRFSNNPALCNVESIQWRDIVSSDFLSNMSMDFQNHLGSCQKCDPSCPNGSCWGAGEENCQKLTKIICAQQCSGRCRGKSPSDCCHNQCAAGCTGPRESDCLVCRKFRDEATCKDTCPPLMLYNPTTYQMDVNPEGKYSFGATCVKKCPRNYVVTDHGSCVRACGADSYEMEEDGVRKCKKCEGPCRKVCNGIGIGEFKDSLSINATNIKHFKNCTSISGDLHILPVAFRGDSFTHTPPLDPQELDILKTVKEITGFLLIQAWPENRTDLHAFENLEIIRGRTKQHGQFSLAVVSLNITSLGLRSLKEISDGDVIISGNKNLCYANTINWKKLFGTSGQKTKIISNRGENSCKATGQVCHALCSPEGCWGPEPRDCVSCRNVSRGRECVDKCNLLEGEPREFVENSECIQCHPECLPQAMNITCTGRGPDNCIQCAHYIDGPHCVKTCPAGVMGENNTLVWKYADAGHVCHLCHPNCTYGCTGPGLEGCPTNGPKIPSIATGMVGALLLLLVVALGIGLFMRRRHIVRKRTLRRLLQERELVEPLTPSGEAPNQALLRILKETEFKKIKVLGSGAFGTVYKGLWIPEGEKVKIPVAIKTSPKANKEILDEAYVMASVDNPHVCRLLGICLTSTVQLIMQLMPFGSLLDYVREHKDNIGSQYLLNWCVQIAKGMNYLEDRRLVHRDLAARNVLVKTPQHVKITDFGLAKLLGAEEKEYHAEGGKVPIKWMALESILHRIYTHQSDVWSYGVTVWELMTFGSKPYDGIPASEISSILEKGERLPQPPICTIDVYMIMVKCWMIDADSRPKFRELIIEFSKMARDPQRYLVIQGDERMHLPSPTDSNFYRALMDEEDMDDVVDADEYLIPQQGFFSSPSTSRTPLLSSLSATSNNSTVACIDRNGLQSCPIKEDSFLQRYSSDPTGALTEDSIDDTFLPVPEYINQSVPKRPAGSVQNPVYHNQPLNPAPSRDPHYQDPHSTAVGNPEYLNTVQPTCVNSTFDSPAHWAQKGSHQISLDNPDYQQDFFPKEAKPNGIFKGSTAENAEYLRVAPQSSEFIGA
Outline: as §1

[1] = ATP at Km, read-out: IC50 L858R/C797S, Km ATP
[2] = ATP at Km, read-out: IC50 L858R/T790M/C797S, Km ATP
[3] = IC50 L858R/T790M/C797S, 100 μM ATP
[4] = ATP at Km, read-out: IC50 del19/C797S, Km ATP
[5] = ATP at Km, read-out: IC50 WT, Km ATP
[6] = ATP at Km, read-out: IC50 del19/T790M/C797S, Km ATP
[7] = IC50 del19/T790M/C797S, 100 μM ATP
[8] = IC50 L858R/C797S (nM) 100 μM ATP, 100 μM ATP
[9] = Km ATP, read-out: IC50 L858R/C797S (nM) Km ATP
[10] = IC50 L858R/T790M/C797S (nM) 100 μM ATP, 100 μM ATP
[11] = Km ATP, read-out: IC50 L858R/T790M/C797S (nM) Km ATP
[12] = Km ATP, read-out: IC50 del19/C797S (nM) Km ATP
[13] = IC50 WT (nM) 100 μM ATP, 100 μM ATP
[14] = Km ATP, read-out: IC50 WT (nM) Km ATP
[15] = IC50 del19/T790M/C797S (nM) 100 μM ATP, 100 μM ATP
[16] = Km ATP, read-out: IC50 del19/T790M/C797S (nM) Km ATP

Structure (SMILES): CN1CCN(C(=O)c2ccc(-c3cnc(Nc4ccnc(-c5cnn(S(=O)(=O)C6CC6)c5)n4)cc3N[C@H]3CC[C@@](C)(O)CC3)nc2)CC1 [Example 199, (6′-((2-(1-(Cyclopropylsulfonyl)-1H-pyrazol-4-yl)pyrimidin-4-yl)amino)-4′-(((1s,4s)-4-hydroxy-4-methylcyclohexyl)amino)-[2,3′-bipyridin]-5-yl)(4-methylpiperazin-1-yl)methanone]
IC50 (EGFR L858R/C797S; [1]): 0.04 nM
IC50 (EGFR L858R/C797S; IC50 L858R/C797S, 100 μM ATP): 0.4 nM
IC50 (EGFR L858R/T790M/C797S; [2]): 0.1 nM
IC50 (EGFR L858R/T790M/C797S; [3]): 0.3 nM
IC50 (EGFR del19/C797S; [4]): 0.1 nM
IC50 (EGFR del19/C797S; IC50 del19/C797S, 100 μM ATP): 0.3 nM
IC50 (EGFR wildtype; [5]): 0.3 nM
IC50 (EGFR wildtype; IC50 WT, 100 μM ATP): 137 nM
IC50 (EGFR del19/T790M/C797S; [6]): 0.4 nM
IC50 (EGFR del19/T790M/C797S; [7]): 0.7 nM

Structure (SMILES): CC(C)(O)[C@H]1CC[C@@H](Nc2cc(Nc3ccnc(-c4cnn(S(=O)(=O)C5CC5)c4)n3)ncc2-c2ccc(N3CCCC3)cn2)CC1 [Example 82, 2-((1s,4s)-4-((6′-((2-(1-(Cyclopropylsulfonyl)-1H-pyrazol-4-yl)pyrimidin-4-yl)amino)-5-(pyrrolidin-1-yl)-[2,3′-bipyridin]-4′-yl)amino)cyclohexyl)propan-2-ol]
IC50 (EGFR L858R/C797S; [8]): 73.3 nM
IC50 (EGFR L858R/C797S; [9]): 7.8 nM
IC50 (EGFR L858R/T790M/C797S; [10]): 15.4 nM
IC50 (EGFR L858R/T790M/C797S; [11]): 2.8 nM
IC50 (EGFR del19/C797S; IC50 del19/C797S (nM) 100 μM ATP, 100 μM ATP): 13.3 nM
IC50 (EGFR del19/C797S; [12]): 7.9 nM
IC50 (EGFR wildtype; [13]): > 10000 nM
IC50 (EGFR wildtype; [14]): 29.6 nM
IC50 (EGFR del19/T790M/C797S; [15]): 10.5 nM
IC50 (EGFR del19/T790M/C797S; [16]): 6.5 nM

Structure (SMILES): CN(C)c1cnc(-c2cnc(Nc3ccnc(-c4cnn(S(=O)(=O)C5CC5)c4)n3)cc2N[C@H]2CC[C@@](C)(O)CC2)nc1 [Example 39, (1s,4s)-4-((2-((2-(1-(Cyclopropylsulfonyl)-1H-pyrazol-4-yl)pyrimidin-4-yl)amino)-5-(5-(dimethylamino)pyrimidin-2-yl)pyridin-4-yl)amino)-1-methylcyclohexan-1-ol]
IC50 (EGFR L858R/C797S; [8]): 74.8 nM
IC50 (EGFR L858R/C797S; [9]): 8.7 nM
IC50 (EGFR L858R/T790M/C797S; [10]): 0.7 nM
IC50 (EGFR L858R/T790M/C797S; [11]): 0.4 nM
IC50 (EGFR del19/C797S; [12]): 2.5 nM
IC50 (EGFR wildtype; [13]): > 10000 nM
IC50 (EGFR wildtype; [14]): 26 nM
IC50 (EGFR del19/T790M/C797S; [15]): 2.1 nM
IC50 (EGFR del19/T790M/C797S; [16]): 1 nM

Structure (SMILES): CN1CCC(Oc2cnc(-c3cnc(Nc4ccnc(-c5cnn(S(=O)(=O)C6CC6)c5)n4)cc3N[C@H]3CC[C@@H](C(C)(C)O)CC3)cn2)CC1 [Example 147, 2-((1s,4s)-4-((2-((2-(1-(Cyclopropylsulfonyl)-1H-pyrazol-4-yl)pyrimidin-4-yl)amino)-5-(5-((1-methylpiperidin-4-yl)oxy)pyrazin-2-yl)pyridin-4-yl)amino)cyclohexyl)propan-2-ol]
IC50 (EGFR L858R/C797S; [9]): 0.1 nM
IC50 (EGFR L858R/T790M/C797S; [11]): 0.1 nM
IC50 (EGFR del19/C797S; [12]): 0.4 nM
IC50 (EGFR wildtype; [14]): 2.3 nM
IC50 (EGFR del19/T790M/C797S; [16]): 0.3 nM

The remaining lines, values ahead:

IC50 (EGFR L858R/C797S; [1]): 0.1 nM
IC50 (EGFR L858R/C797S; IC50 L858R/C797S, 100 μM ATP): 0.4 nM
IC50 (EGFR L858R/T790M/C797S; [2]): 0.03 nM
IC50 (EGFR L858R/T790M/C797S; [3]): 0.1 nM
IC50 (EGFR del19/C797S; [4]): 0.1 nM
IC50 (EGFR del19/C797S; IC50 del19/C797S, 100 μM ATP): 0.1 nM
IC50 (EGFR wildtype; [5]): 0.5 nM
IC50 (EGFR wildtype; IC50 WT, 100 μM ATP): 108 nM
IC50 (EGFR del19/T790M/C797S; [6]): 0.02 nM
IC50 (EGFR del19/T790M/C797S; [7]): 0.1 nM
Structure (SMILES): CN(C)C[C@H]1CC[C@@H](Nc2cc(Nc3ccnc(-c4cnn(S(=O)(=O)C5CC5)c4)n3)ncc2-c2cccc(F)n2)CC1 [Example 274, N^6′-(2-(1-(Cyclopropylsulfonyl)-1H-pyrazol-4-yl)pyrimidin-4-yl)-N^4′-((1s,4s)-4-((dimethylamino)methyl)cyclohexyl)-6-fluoro-[2,3′-bipyridine]-4′,6′-diamine]

IC50 (EGFR L858R/C797S; [1]): 0.8 nM
IC50 (EGFR L858R/C797S; IC50 L858R/C797S, 100 μM ATP): 11.2 nM
IC50 (EGFR L858R/T790M/C797S; [2]): 0.1 nM
IC50 (EGFR L858R/T790M/C797S; [3]): 0.1 nM
IC50 (EGFR del19/C797S; [4]): 0.8 nM
IC50 (EGFR del19/C797S; IC50 del19/C797S, 100 μM ATP): 0.6 nM
IC50 (EGFR wildtype; [5]): 6.9 nM
IC50 (EGFR wildtype; IC50 WT, 100 μM ATP): 2930 nM
IC50 (EGFR del19/T790M/C797S; [6]): 0.1 nM
IC50 (EGFR del19/T790M/C797S; [7]): 0.1 nM
Structure (SMILES): CS(=O)(=O)c1ccc(-c2cnc(Nc3ccnc(-c4cnn(S(=O)(=O)C5CC5)c4)n3)cc2N[C@H]2CC[C@@H](NCCF)CC2)nc1 [Example 157, N^6′-(2-(1-(Cyclopropylsulfonyl)-1H-pyrazol-4-yl)pyrimidin-4-yl)-N^4′-((1s,4s)-4-((2-fluoroethyl)amino)cyclohexyl)-5-(methylsulfonyl)-[2,3′-bipyridine]-4′,6′-diamine]
